This is an account of results in patent publication US7807701B2, “Dibenzylamine compounds and pharmaceutical use thereof” (Japan Tobacco Inc., priority 2002, dated 2010).

Counter-ions that a name gives are not always drawn.

In experiment [1] the test system is CETP. The experiment can be described thus: Inhibitory effect exo vivo on CETP activity in total plasma of normal hamster. The note with it: single oral dose 30 mg/kg, blood taken 2 hr after administration, average values. How it is done:
Potassium bromide (KBr) was added to plasma (40 mL) of healthy subject and the mixture was adjusted to have a specific density d=1.125 g/mL. The mixture was subjected to density gradient centrifugation (227,000×g, 4° C., 17 hr) and a fraction showing a specific density of d>1.125 g/mL (HDL3 fraction) was harvested. The obtained fraction was dialyzed against PBS solution [10 mmol/L Na2HPO4; 10 mmol/L NaH2PO4; 0.15 mol/L NaCl; […] (pH 7.4)]. Then, tritium-labeled cholesterol (37 MBq) was dissolved in 95% ethanol, gradually added to the above-mentioned HDL3 fraction with stirring and incubated at 37° C. for 18 hr. [By this operation, tritium-labeled cholesterol was esterified by the action of lecithin acyl transferase (LCAT) present on the HDL3 surface and taken up into HDL3 as tritium-labeled cholesteryl ester ([^3H]CE)]. After incubation, KBr was added, the mixture was adjusted to have a specific density d=1.21 g/mL, subjected to density gradient centrifugation (227,000×g, 4° C., 17 hr) and a fraction of specific density […] was harvested. The obtained fraction was dialyzed against the aforementioned PBS solution to give HDL3 incorporating [^3H]CE ([^3H]CE-HDL3, specific density: 1.125<d<1.21, specific activity: 10,000 dpm/μL), which was used as a donor lipoprotein.
The compound of the present invention was suspended in 0.5% methyl cellulose solution and orally administered once to a healthy hamster with a plastic gavage needle. Blood was taken at 2 or 4 hr after the administration and CETP activity in plasma was measured according to the following method.
The donor lipoprotein obtained above was added to hamster plasma (100 μL) to prepare [^3H]CE-HDL3-containing plasma (ca. 1,000 dpm/μL). The [^3H]CE-HDL3-containing plasma was dispensed to two microtubes by 25 μL each, and one was incubated at 37° C. and the other was incubated at 4° C. for 4 hr each. After ice-cooling, TBS solution (50 μl) containing 1 mol/L magnesium chloride and 2% dextran sulfate was added to each microtube and the mixture was thoroughly stirred. After keeping at […] for 30 min, the mixture was centrifuged (10,000×g, 4° C., 20 min), and the radioactivity in the obtained supernatant (HDL fraction) was measured with a liquid scintillation counter. The radioactivity of the [^3H]CE-HDL3-containing plasma was measured with a liquid scintillation counter, and taken as the total radioactivity. The transfer rate of [^3H]CE was calculated from the following formula using the total radioactivity (Total count), radioactivity by 37° C. incubation (37° C. count) and radioactivity by 4° C. incubation (4° C. count) of the sample of each individual and taken as the CETP activity. CETP activity(transfer ratio (%))={[(4° C. count)−(37° C. count)]/(Total count)}×100
The CETP activity inhibitory ratio of each compound administration group based on the CETP activity of the solvent administration group as 100% was calculated from the following formula and expressed in %.
CETP activity inhibitory ratio (%)=100−[(CETP activity of each compound administration group)/(CETP activity of solvent administration group)×100]

Experiment [2] has as its target T1, CETP (Homo sapiens, UniProt P11597).
T1 construct: The donor lipoprotein obtained above was added to plasma of healthy subject; from tissue; host or cells: whole plasma of healthy subject
T1 sequence (P11597 18-493): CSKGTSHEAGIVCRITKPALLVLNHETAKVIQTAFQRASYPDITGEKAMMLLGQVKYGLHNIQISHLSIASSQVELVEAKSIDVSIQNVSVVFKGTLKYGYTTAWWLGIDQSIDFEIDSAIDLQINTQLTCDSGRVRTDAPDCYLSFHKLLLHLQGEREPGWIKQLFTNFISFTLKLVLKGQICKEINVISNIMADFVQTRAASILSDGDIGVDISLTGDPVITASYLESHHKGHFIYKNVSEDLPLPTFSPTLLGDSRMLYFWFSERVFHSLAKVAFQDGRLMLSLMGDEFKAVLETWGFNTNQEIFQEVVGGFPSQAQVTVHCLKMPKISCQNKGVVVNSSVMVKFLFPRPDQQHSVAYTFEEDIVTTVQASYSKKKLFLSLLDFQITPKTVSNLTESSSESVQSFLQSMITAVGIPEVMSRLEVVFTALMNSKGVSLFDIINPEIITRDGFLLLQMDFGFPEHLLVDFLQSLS
The experiment can be described thus: Inhibitory effect in vitro on CETP activity in total plasma. The format is biochemical. The note with it: plasma of healthy subject with [3H]CE-HDL3, 37° C., 4 hr; average values. The essentials:
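Healthy-donor plasma spiked with [3H]cholesteryl ester-labelled HDL3 (1,000 dpm/μL) was incubated with compound (DMF vehicle) for 4 hr at 37 °C or 4 °C. HDL was separated by MgCl2/dextran sulfate precipitation and supernatant radioactivity counted. IC50 is the concentration giving 50% inhibition of CETP activity.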

Take `CCN(CCCCC(=O)OC)c1cc2c(cc1CN(Cc1cc(C#N)cc(C(F)(F)F)c1)c1nnn(C)n1)CCC2.Cl` [Example 36]: the “CETP activity (%) 2 (hr later)” value in the experiment with CETP [1] was found to be 33.3%.
What is called IC50 is the concentration that gives 50% inhibition. The molecule `CCN(C[C@H]1CC[C@H](CC(=O)O)CC1)c1cc2c(cc1CN(Cc1cc(C(F)(F)F)cc(C(F)(F)F)c1)c1nnn(C)n1)CCC2` [Example 111, trans-(4-{[N-(6-{[N′-[3,5-bis(trifluoromethyl)benzyl]-N′-(2-methyl-2H-tetrazol-5-yl)amino]methyl}indan-5-yl)-N-ethylamino]methyl}cyclohexyl)acetic acid hydrochloride] yielded an IC50 against CETP [2] of 0.19 µM.
In the case of `CCN(CC(C)(C)CCC(=O)O)c1cc2c(cc1CN(Cc1cc(C(F)(F)F)cc(C(F)(F)F)c1)c1nnn(C)n1)CCC2` [Example 114, 5-[N-(6-{[N′-[3,5-bis(trifluoromethyl)benzyl]-N′-(2-methyl-2H-tetrazol-5-yl)amino]methyl}indan-5-yl)-N-ethylamino]-4,4-dimethylpentanoic acid hydrochloride], the IC50 against CETP [2] came out at 0.28 µM.
Same read-out and setting: under `CCN(C[C@H]1CC[C@H](CO)CC1)c1ccc(OC(F)(F)F)cc1CN(Cc1cc(C(F)(F)F)cc(C(F)(F)F)c1)c1nnn(C)n1` [Example 119, trans-(4-{[N-(2-{[N′-[3,5-bis(trifluoromethyl)benzyl]-N′-(2-methyl-2H-tetrazol-5-yl)amino]methyl}-4-trifluoromethoxyphenyl)-N-ethylamino]methyl}cyclohexyl)methanol hydrochloride] stands 0.13 µM; under `CCN(CC(C)(C)CCCC(=O)O)c1cc2c(cc1CN(Cc1cc(C(F)(F)F)cc(C(F)(F)F)c1)c1nnn(C)n1)CCC2` [Example 120, 6-[N-(6-{[N′-[3,5-bis(trifluoromethyl)benzyl]-N′-(2-methyl-2H-tetrazol-5-yl)amino]methyl}indan-5-yl)-N-ethylamino]-5,5-dimethylhexanoic acid hydrochloride], 0.28 µM; under `CCCN(C[C@H]1CC[C@H](C(=O)O)CC1)c1ccc(OC(F)(F)F)cc1CN(Cc1cc(C(F)(F)F)cc(C(F)(F)F)c1)c1nnn(C)n1` [Example 121, trans-4-{[N-(2-{[N′-[3,5-bis(trifluoromethyl)benzyl]-N′-(2-methyl-2H-tetrazol-5-yl)amino]methyl}-4-trifluoromethoxyphenyl)-N-propylamino]methyl}cyclohexanecarboxylic acid hydrochloride], 0.23 µM.
On the same count and under the same terms, with `CC(C)CN(C[C@H]1CC[C@H](C(=O)O)CC1)c1ccc(OC(F)(F)F)cc1CN(Cc1cc(C(F)(F)F)cc(C(F)(F)F)c1)c1nnn(C)n1` [Example 122, trans-4-{[N-(2-{[N′-[3,5-bis(trifluoromethyl)benzyl]-N′-(2-methyl-2H-tetrazol-5-yl)amino]methyl}-4-trifluoromethoxyphenyl)-N-isobutylamino]methyl}cyclohexanecarboxylic acid hydrochloride] the figure was 0.24 µM.
Still for that read-out and setting: under `CCN(C[C@H]1CC[C@H](C(=O)O)CC1)c1ccc(OC(F)(F)F)cc1CN(Cc1cc(C(F)(F)F)cc(C(F)(F)F)c1)c1ccc(C)cc1` [Example 127, trans-4-{[N-(2-{[N′-[3,5-bis(trifluoromethyl)benzyl]-N′-(p-tolyl)amino]methyl}-4-trifluoromethoxyphenyl)-N-ethylamino]methyl}cyclohexanecarboxylic acid hydrochloride] stands 0.37 µM.
For `CCN(C[C@H]1CC[C@H](C(=O)O)CC1)c1ccc(OC(F)(F)F)cc1CN(Cc1cc(Cl)cc(Cl)c1)c1nnn(C)n1` [Example 129, trans-4-{[N-(2-{[N′-(3,5-dichlorobenzyl)-N′-(2-methyl-2H-tetrazol-5-yl)amino]methyl}-4-trifluoromethoxyphenyl)-N-ethylamino]methyl}cyclohexanecarboxylic acid hydrochloride], inhibition on CETP [2] was half-maximal at 0.61 µM (IC50). Compared with the last molecule, the IC50 is about 1.6-fold higher.
The same measure, in the same setting: with `CCN(C[C@H]1CC[C@H](C(=O)O)CC1)c1ccc(OC(F)(F)F)cc1CN(Cc1cc(Cl)cc(C(F)(F)F)c1)c1nnn(C)n1` [Example 131, trans-4-{[N-(2-{[N′-(3-chloro-5-trifluoromethylbenzyl)-N′-(2-methyl-2H-tetrazol-5-yl)amino]methyl}-4-trifluoromethoxyphenyl)-N-ethylamino]methyl}cyclohexanecarboxylic acid hydrochloride] the figure was 0.17 µM.
Turning to `CCN(C[C@H]1CC[C@H](CCC(=O)O)CC1)c1ccc(OC(F)(F)F)cc1CN(Cc1cc(C(F)(F)F)cc(C(F)(F)F)c1)c1nnn(C)n1` [Example 135, trans-3-(4-{[N-(2-{[N′-[3,5-bis(trifluoromethyl)benzyl]-N′-(2-methyl-2H-tetrazol-5-yl)amino]methyl}-4-trifluoromethoxyphenyl)-N-ethylamino]methyl}cyclohexyl)propionic acid hydrochloride], at CETP [2], the IC50 came out at 0.22 µM.
The same measure, in the same setting: under `CCN(C[C@H]1CC[C@H](CC(=O)O)CC1)c1cc2c(cc1CN(Cc1cc(C(F)(F)F)cc(C(F)(F)F)c1)c1nnn(C)n1)OC(F)(F)C(F)(F)O2` [Example 137, trans-(4-{[N-(7-{[N′-[3,5-bis(trifluoromethyl)benzyl]-N′-(2-methyl-2H-tetrazol-5-yl)amino]methyl}-2,2,3,3-tetrafluoro-2,3-dihydrobenzo[1,4]dioxin-6-yl)-N-ethylamino]methyl}cyclohexyl)acetic acid hydrochloride] stands 0.14 µM.
On the same count and under the same terms, with `CCN(C[C@H]1CC[C@H](CC(N)=O)CC1)c1cc2c(cc1CN(Cc1cc(C(F)(F)F)cc(C(F)(F)F)c1)c1nnn(C)n1)OC(F)(F)C(F)(F)O2` [Example 138, trans-2-(4-{[N-(7-{[N′-[3,5-bis(trifluoromethyl)benzyl]-N′-(2-methyl-2H-tetrazol-5-yl)amino]methyl}-2,2,3,3-tetrafluoro-2,3-dihydrobenzo[1,4]dioxin-6-yl)-N-ethylamino]methyl}cyclohexyl)acetamide hydrochloride] the figure was 0.16 µM; with `CCN(C[C@H]1CC[C@H](CCO)CC1)c1ccc(OC(F)(F)F)cc1CN(Cc1cc(C(F)(F)F)cc(C(F)(F)F)c1)c1nnn(C)n1` [Example 140, trans-2-(4-{[N-(2-{[N′-[3,5-bis(trifluoromethyl)benzyl]-N′-(2-methyl-2H-tetrazol-5-yl)amino]methyl}-4-trifluoromethoxyphenyl)-N-ethylamino]methyl}cyclohexyl)ethanol hydrochloride], 0.12 µM; with `CCN(C[C@H]1CC[C@H](CO)CC1)c1cc(C(F)(F)F)c(C)cc1CN(Cc1cc(C(F)(F)F)cc(C(F)(F)F)c1)c1nnn(C)n1` [Example 141, trans-(4-{[N-(2-{[N′-[3,5-bis(trifluoromethyl)benzyl]-N′-(2-methyl-2H-tetrazol-5-yl)amino]methyl}-4-methyl-5-trifluoromethylphenyl)-N-ethylamino]methyl}cyclohexyl)methanol hydrochloride], 0.12 µM.
Still for that read-out and setting: under “trans-4-{[N-(6-{[N′-(3-cyano-5-trifluoromethylbenzyl)-N′-(3-methylisoxazol-5-yl)amino]methyl}indan-5-yl)-N-ethylamino]methyl}cyclohexanecarboxylic acid hydrochloride [Example 54]” stands 0.79 µM.
